Data taken from PubChem BioAssay AID1259407 (Chemical Carcinogenesis Research Information System (CCRIS), 2018).
Calls of active or inactive are those of the source. The rule behind the calls is not given here.

Tested on: CCRIS mutagenicity, Ames/micronucleus/aberration tests
Assay: CCRIS mutagenicity studies
[1] = Test System: AMES SALMONELLA TYPHIMURIUM, Strain/Indicator: TA98, Metabolic Activation: NONE, Method: PREINCUBATION
[2] = Test System: AMES SALMONELLA TYPHIMURIUM, Strain/Indicator: TA98, Metabolic Activation: NONE, Method: STANDARD PLATE
[3] = Test System: AMES SALMONELLA TYPHIMURIUM, Strain/Indicator: TA98, Metabolic Activation: RAT, LIVER, S-9, AROCLOR 1254, Method: STANDARD PLATE
[4] = Test System: AMES SALMONELLA TYPHIMURIUM, Strain/Indicator: TA100, Metabolic Activation: NONE, Method: PREINCUBATION
[5] = Test System: AMES SALMONELLA TYPHIMURIUM, Strain/Indicator: TA100, Metabolic Activation: NONE, Method: STANDARD PLATE
[6] = Test System: AMES SALMONELLA TYPHIMURIUM, Strain/Indicator: TA100, Metabolic Activation: RAT, LIVER, S-9, AROCLOR 1254, Method: STANDARD PLATE
[7] = Test System: AMES SALMONELLA TYPHIMURIUM, Strain/Indicator: TA1535, Metabolic Activation: NONE, Method: STANDARD PLATE
[8] = Test System: AMES SALMONELLA TYPHIMURIUM, Strain/Indicator: TA1535, Metabolic Activation: RAT, LIVER, S-9, AROCLOR 1254, Method: STANDARD PLATE
[9] = Test System: AMES SALMONELLA TYPHIMURIUM, Strain/Indicator: TA1537, Metabolic Activation: NONE, Method: STANDARD PLATE
[10] = Test System: AMES SALMONELLA TYPHIMURIUM, Strain/Indicator: TA1537, Metabolic Activation: RAT, LIVER, S-9, AROCLOR 1254, Method: STANDARD PLATE
[11] = Test System: AMES SALMONELLA TYPHIMURIUM, Strain/Indicator: TA1538, Metabolic Activation: NONE, Method: STANDARD PLATE
[12] = Test System: AMES SALMONELLA TYPHIMURIUM, Strain/Indicator: TA1538, Metabolic Activation: RAT, LIVER, S-9, AROCLOR 1254, Method: STANDARD PLATE

CN(C)CCO
mutagenic call (Test System: AMES SALMONELLA TYPHIMURIUM, Strain/Indicator: TA97, Metabolic Activation: HAMSTER, LIVER, AROCLOR 1254 (10 OR 30%), Method: PREINCUBATION): inactive; negative
mutagenic call (Test System: AMES SALMONELLA TYPHIMURIUM, Strain/Indicator: TA97, Metabolic Activation: NONE, Method: PREINCUBATION): inactive; negative
mutagenic call (Test System: AMES SALMONELLA TYPHIMURIUM, Strain/Indicator: TA97, Metabolic Activation: RAT, LIVER, S-9, AROCLOR 1254 (10 OR 30%), Method: PREINCUBATION): inactive; negative
mutagenic call (Test System: AMES SALMONELLA TYPHIMURIUM, Strain/Indicator: TA98, Metabolic Activation: HAMSTER, LIVER, S-9, AROCLOR 1254 (10%), Method: PREINCUBATION): inactive; negative
mutagenic call (Test System: AMES SALMONELLA TYPHIMURIUM, Strain/Indicator: TA98, Metabolic Activation: HAMSTER, LIVER, S-9, AROCLOR 1254 (30%), Method: PREINCUBATION): inactive; negative
mutagenic call [1]: inactive; negative
mutagenic call [2]: inactive; negative
mutagenic call (Test System: AMES SALMONELLA TYPHIMURIUM, Strain/Indicator: TA98, Metabolic Activation: RAT, LIVER, S-9, AROCLOR 1254 (10%), Method: PREINCUBATION): inactive; negative
mutagenic call (Test System: AMES SALMONELLA TYPHIMURIUM, Strain/Indicator: TA98, Metabolic Activation: RAT, LIVER, S-9, AROCLOR 1254 (30%), Method: PREINCUBATION): inactive; negative
mutagenic call [3]: inactive; negative
mutagenic call (Test System: AMES SALMONELLA TYPHIMURIUM, Strain/Indicator: TA100, Metabolic Activation: HAMSTER, LIVER, S-9, AROCLOR 1254 (10%), Method: PREINCUBATION): inactive; negative
mutagenic call (Test System: AMES SALMONELLA TYPHIMURIUM, Strain/Indicator: TA100, Metabolic Activation: HAMSTER, LIVER, S-9, AROCLOR 1254 (30%), Method: PREINCUBATION): inactive; negative
mutagenic call [4]: inactive; negative
mutagenic call [5]: inactive; negative
mutagenic call (Test System: AMES SALMONELLA TYPHIMURIUM, Strain/Indicator: TA100, Metabolic Activation: RAT, LIVER, S-9, AROCLOR 1254 (10%), Method: PREINCUBATION): inactive; negative
mutagenic call (Test System: AMES SALMONELLA TYPHIMURIUM, Strain/Indicator: TA100, Metabolic Activation: RAT, LIVER, S-9, AROCLOR 1254 (30%), Method: PREINCUBATION): inactive; negative
mutagenic call [6]: inactive; negative
mutagenic call (Test System: AMES SALMONELLA TYPHIMURIUM, Strain/Indicator: TA1535, Metabolic Activation: HAMSTER, LIVER, S-9, AROCLOR 1254 (10%), Method: PREINCUBATION): inactive; negative
mutagenic call (Test System: AMES SALMONELLA TYPHIMURIUM, Strain/Indicator: TA1535, Metabolic Activation: HAMSTER, LIVER, S-9, AROCLOR 1254 (30%), Method: PREINCUBATION): inactive; negative
mutagenic call (Test System: AMES SALMONELLA TYPHIMURIUM, Strain/Indicator: TA1535, Metabolic Activation: NONE, Method: PREINCUBATION): inactive; negative
mutagenic call [7]: inactive; negative
mutagenic call (Test System: AMES SALMONELLA TYPHIMURIUM, Strain/Indicator: TA1535, Metabolic Activation: RAT, LIVER, S-9, AROCLOR 1254 (10%), Method: PREINCUBATION): inactive; negative
mutagenic call (Test System: AMES SALMONELLA TYPHIMURIUM, Strain/Indicator: TA1535, Metabolic Activation: RAT, LIVER, S-9, AROCLOR 1254 (30%), Method: PREINCUBATION): inactive; negative
mutagenic call [8]: inactive; negative
mutagenic call (Test System: AMES SALMONELLA TYPHIMURIUM, Strain/Indicator: TA1537, Metabolic Activation: HAMSTER, LIVER, S-9, AROCLOR 1254 (10%), Method: PREINCUBATION): inactive; negative
mutagenic call (Test System: AMES SALMONELLA TYPHIMURIUM, Strain/Indicator: TA1537, Metabolic Activation: HAMSTER, LIVER, S-9, AROCLOR 1254 (30%), Method: PREINCUBATION): inactive; negative
mutagenic call (Test System: AMES SALMONELLA TYPHIMURIUM, Strain/Indicator: TA1537, Metabolic Activation: NONE, Method: PREINCUBATION): inactive; negative
mutagenic call [9]: inactive; negative
mutagenic call (Test System: AMES SALMONELLA TYPHIMURIUM, Strain/Indicator: TA1537, Metabolic Activation: RAT, LIVER, S-9, AROCLOR 1254 (10%), Method: PREINCUBATION): inactive; negative
mutagenic call (Test System: AMES SALMONELLA TYPHIMURIUM, Strain/Indicator: TA1537, Metabolic Activation: RAT, LIVER, S-9, AROCLOR 1254 (30%), Method: PREINCUBATION): inactive; negative
mutagenic call [10]: inactive; negative
mutagenic call [11]: inactive; negative
mutagenic call [12]: inactive; negative
mutagenic call (Test System: CHINESE HAMSTER OVARY, Strain/Indicator: CHO-K1-BH4, Metabolic Activation: NONE): inactive; negative
mutagenic call (Test System: CHINESE HAMSTER OVARY, Strain/Indicator: CHO-K1-BH4, Metabolic Activation: RAT, LIVER, S-9, AROCLOR 1254): inactive; negative

[N-]=[N+]=CC(=O)OC[C@H](N)C(=O)O
mutagenic call [5]: active; positive
mutagenic call (Test System: E. COLI WP2, Strain/Indicator: WP2, Metabolic Activation: NONE, Method: STANDARD PLATE): active; positive
mutagenic call (Test System: UDS RAT HEPATOCYTES, Strain/Indicator: BROMODEOXYURIDINE INCORP, Metabolic Activation: NONE, Method: FLOW CYTOMETRIC ANALYSIS): active; positive
mutagenic call (Test System: UDS RAT HEPATOCYTES, Strain/Indicator: THY INCORP, Metabolic Activation: NONE, Method: AUTORADIOGRAPHY): active; positive

NCCCC[C@H](N[C@@H](CCc1ccccc1)C(=O)O)C(=O)N1CCC[C@H]1C(=O)O
mutagenic call [2]: inactive; negative
mutagenic call [3]: inactive; negative
mutagenic call [5]: inactive; negative
mutagenic call [6]: inactive; negative
mutagenic call [7]: inactive; negative
mutagenic call [8]: inactive; negative
mutagenic call [9]: inactive; negative
mutagenic call [10]: inactive; negative
mutagenic call [11]: inactive; negative
mutagenic call [12]: inactive; negative
mutagenic call (Test System: E. COLI, Strain/Indicator: WP2, Metabolic Activation: NONE, Method: STANDARD PLATE): inactive; negative
mutagenic call (Test System: E. COLI, Strain/Indicator: WP2, Metabolic Activation: RAT, LIVER, S-9, AROCLOR 1254, Method: STANDARD PLATE): inactive; negative
mutagenic call (Test System: E. COLI, Strain/Indicator: WP2 UVRA, Metabolic Activation: NONE, Method: STANDARD PLATE): inactive; negative
mutagenic call (Test System: E. COLI, Strain/Indicator: WP2 UVRA, Metabolic Activation: RAT, LIVER, S-9, AROCLOR 1254, Method: STANDARD PLATE): inactive; negative

C=CC(C)(C)c1cc2cc3c(cc2oc1=O)OC(C(C)(C)OC(C)=O)C3 (configuration not stated)
mutagenic call [2]: inactive; negative
mutagenic call (Test System: AMES SALMONELLA TYPHIMURIUM, Strain/Indicator: TA98, Metabolic Activation: RAT, LIVER, S-9, PHENOBARBITAL, Method: STANDARD PLATE): inactive; negative

Clc1nncc2ncccc12
mutagenic call [1]: inactive; negative
mutagenic call (Test System: AMES SALMONELLA TYPHIMURIUM, Strain/Indicator: TA98, Metabolic Activation: RAT, LIVER, S-9, PCB, Method: PREINCUBATION): inactive; negative
mutagenic call [4]: inactive; negative
mutagenic call (Test System: AMES SALMONELLA TYPHIMURIUM, Strain/Indicator: TA100, Metabolic Activation: RAT, LIVER, S-9, PCB, Method: PREINCUBATION): inactive; negative

O=c1c(Cl)c(Cl)cnn1S(=O)(=O)c1ccc([N+](=O)[O-])cc1
mutagenic call [2]: active; positive
mutagenic call [3]: inactive; negative
mutagenic call [5]: active; positive
mutagenic call [6]: active; positive
mutagenic call [7]: inactive; negative
mutagenic call [8]: active; positive
mutagenic call [9]: inactive; negative
mutagenic call [10]: inactive; negative
